# Data as given in patent publication US20240010639A1, “TRIAZINE DIONE DERIVATIVE, PREPARATION METHOD THEREFOR AND APPLICATION THEREOF IN MEDICINE” (Jiangsu Hengrui Pharmaceuticals Co., Ltd., priority 2020, published 2024).
# Where two headings read alike, the source gives them in different places.
# What was measured:
# [1] = Identification of reactive metabolites (GSH conjugates) in human liver microsomes; format: in vitro ADME; details: for Identification of reactive metabolites: Result: human liver microsomes 1 mg/mL, test compound 30 μM, GSH 5 mM, NADPH 1.0 mM, 60 min, 37° C.; for glutathione (GSH) conjugate associated with the compound detected (in words): human liver microsomes, GSH trapping
# Method: The identification of reactive metabolites of the compound disclosed herein in human liver microsomes was carried out using the experimental method below:
# • 1. Phosphate-buffered saline (purchased from Shanghai Sangon) • 2. NADPH (ACROS, A2646-71-1) • 3. Human liver microsome (Corning Gentest, Cat No. 452161, Lot No. 905002) • 4. Thermo UHPLC-Q-Exactive Orbitrap mass spectrometer (Thermo Fisher Scientific) • 5. Acquity BEH C18 column, 2.1×100 mm, 1.7 μm (Waters, USA) • 6. Positive control compound (diclofenac).
# • 1. Preparation of test compound solutions: A proper amount of a test compound was precisely measured out and dissolved in a proper amount of DMSO. After the solution was well mixed, a 30 mM stock solution was obtained. A […] stock solution was 10-fold diluted with 50% acetonitrile/water (v/v) to obtain a 3.0 mM working solution 1. The 3.0 mM working solution 1 was 10-fold diluted with PBS to obtain a 300 μM working solution 2, and the solution was stored at 4° C. before use. • 2. Preparation of phosphate-buffered saline: Proper amounts of K2HPO4 and KH2PO4 were measured out and dissolved in 4 L of pure water to prepare a 100 mM buffer, and the pH was then adjusted with phosphoric acid or sodium hydroxide to 7.4. • 3. Preparation of liver microsome solutions: Proper amounts of liver microsome stock solutions of various species (20 mg/mL) were measured out and diluted with the 100 mM phosphate-buffered saline (pH 7.4) to prepare 1.43 mg/mL microsome solutions. • 4. Preparation of NADPH cofactor solution: Proper amounts of NADPH and magnesium chloride were measured out and dissolved in a proper amount of the 100 mM phosphate-buffered saline (pH 7.4) so the concentrations of NADPH and magnesium chloride were 10 mM and 30 mM, respectively, and the solutions were stored for later use. • 5. Preparation of glutathione (GSH) solution: A proper amount of glutathione was measured out and dissolved in a proper amount of the 100 mM phosphate-buffered saline (pH 7.4) so the concentration of GSH was 50 mM, and the solution was stored for later use. • 6. The incubation system is shown below:
# To a 1.5 mL centrifuge tube, 20 μL of the 300 μM working solution 2 was precisely transferred and 140 μL of a 1.43 mg/mL liver microsome solution was then added so the concentration of liver microsomal protein in the incubation system was 1 mg/mL. […] The collected data were processed and analyzed using Xcalibur software. According to the exact molecular weight, tandem mass spectrometry fragments were analyzed to see if the compound disclosed herein would be metabolically activated to produce reactive metabolites.
# [2] = Pharmacokinetic evaluation in cynomolgus monkeys; format: in vivo; details: for AUC / half-life / Cmax / MRT / Vd/F / CL/F: both (Example 16), male (MYK-461), cynomolgus monkey, plasma; for AUC: read-out: Area under curve AUC; for half-life: read-out: Half-life T1/2 (converted); for Cmax: read-out: Plasma concentration Cmax; for MRT: read-out: Residence time MRT; for Vd/F: read-out: Apparent volume of distribution Vz/F; for CL/F: read-out: Clearance CL/F
# Method: With cynomolgus monkeys as test animals, the plasma concentrations of the test compounds were measured by LC/MS/MS at different time points after intragastric administration and intravenous injection. The pharmacokinetic performance of the compound disclosed herein was studied in cynomolgus monkeys and its pharmacokinetic profile was evaluated.
# Pharmacokinetics of the compound of Example 16 in cynomolgus monkeys: 8 cynomolgus monkeys, an equal number of males and females, divided into 2 groups of 4, provided by Shanghai Medicilon Inc.
# Pharmacokinetics of compound MYK-461 in cynomolgus monkeys: 6 cynomolgus monkeys, male, divided into 2 groups of 3, provided by Shanghai Medicilon Inc.
# A certain amount of the compound of Example 16 was measured out, and 5% DMSO, 30% PG, 30% PEG400 and 35% normal saline were added to prepare a clear solution.
# A certain amount of compound MYK-461 was measured out, and 5% DMSO, 20% PG, 20% PEG400 and 55% normal saline were added to prepare a clear solution.
# Cynomolgus monkeys were fasted overnight and then given compounds by intragastric administration and intravenous injection at doses of 2 mg/kg and 0.5 mg/kg, respectively, and at volumes of 5 mL/kg and 2 mL/kg, respectively.
# 1.0-mL blood samples were collected from the forelimb veins of the animals in the intragastric administration group before administration and 0.25 h, 0.5 h, 1h, 2 h, 4 h, 6 h, 8 h, 12 h and 24 h after administration, placed into EDTA-K2 anticoagulant tubes, and centrifuged at 10,000 rpm for 5 min (4° C.), and plasma was isolated within 1 h and stored at −80° C. before analysis. The blood collection to centrifugation process was performed under ice bath conditions. Three hours after administration, feeding was resumed, and ad libitum access to water was given.
# Blood samples were collected from the animals in the intravenous injection group before administration and 5 min, 0.25 h, 0.5 h, 1.0 h, 2.0 h, 4.0 h, 8.0 h, 12.0 h and 24.0 h after administration and processed as in the intragastric administration group.
# Determination of plasma concentrations in cynomolgus monkeys after intragastric administration and intravenous injection of different concentrations of test compounds: 20 μL of cynomolgus monkey plasma at each time point post-dose was mixed with an internal standard solution (internal standard for the compound of Example 16: 10 ng/mL verapamil; internal standard for compound MYK-461: 100 ng/mL camptothecin) and 400 μL of methanol; the mixture was vortexed for 1 min and centrifuged at 18,000 g for 7 min, and 200 μL of the supernatant was transferred to a 96-well plate: 2 μL of the supernatant was taken for LC/MS/MS analysis.
# [3] = intravenous injection, 0.5 mg/kg
# [4] = po, intragastric administration, 2 mg/kg
Identification of reactive metabolites: Result [1],glutathione (GSH) conjugate associated with the compound detected (in words) [1],T1/2 comparison (in words) [2],absorption profile (in words) [2],"AUC [2, 3] [ng·h/mL]","half-life [2, 3] [h]","Cmax [2, 3] [ng/mL]","MRT [2, 3] [h]","Vd/F [2, 4] [L/kg]","AUC [2, 4] [ng·h/mL]","CL/F [2, 4] [mL/min/kg]","half-life [2, 4] [h]","Cmax [2, 4] [ng/mL]","MRT [2, 4] [h]","Apparent volume of distribution Vz/F [2, 3] [L/kg]","Clearance CL/F [2, 3] [mL/min/kg]",SMILES
Negative,no glutathione (GSH) conjugate,significantly shorter T1/2,good absorption profile,1020,5.6,1660,6.8,10.3,2400,11.8,10.3,553,12.5,3.579,7.46,"Cc1ccc(F)c([C@H](C)Nc2nc(=O)n(C3CCOCC3)c(=O)[nH]2)c1 [Example 16, (S)-6-((1-(2-Fluoro-5-methylphenyl)ethyl)amino)-3-(tetrahydro-2H-pyran-4-yl)-1,3,5-triazine-2,4(1H,3H)-dione]"
Positive,detected,longer T1/2,–,976,27.3,222,42.8,11.4,3520,2.34,78.3,563,114,8.203,5.02,"CC(C)n1c(=O)cc(N[C@@H](C)c2ccccc2)[nH]c1=O [MYK-461, reference compound]"
